Laboratory results from patent US5639729A, “Tripeptides useful in immune and CNS therapy” (Immunobiology Research Institute, Inc., priority 1993, dated 1997).

Tests used:
[1] = tested on: insulin-induced ACTH secretion; assay: Effect of peptide on insulin-induced ACTH secretion (insulin challenge); type: in vivo, Sprague-Dawley rats; conditions: insulin 0.5 IU/kg intraperitoneally, 30 minutes, rats pretreated with saline by oral gavage or s.c. injection; from 16.8±0.8 pg/ml
Method: As mentioned above, the administration of insulin can be used as a provocative challenge test to determine how an organism responds to stress and how the response can be manipulated. It was shown in FIG. 1 that, in rats, administration of insulin causes an increase in plasma concentrations of ACTH.
Adult male Sprague-Dawley rats were used in these experiments. After an overnight fast, the peptide or saline was administered by oral gavage or by subcutaneous injection to the experimental subjects. Doses of the peptide ranged from 0.1 to 10 mg/kg by the oral route and 0.03 to 3.0 mg/kg by the subcutaneous route. […] all animals were treated with insulin (0.5 IU/kg) and were sacrificed by decapitation 30 minutes later. As above, trunk blood was collected in polypropylene tubes containing 400 μl of 10% EDTA at 4° C. Plasma was separated by centrifugation and stored at -80° C. until being used for ACTH determinations, ACTH concentrations were determined by RIA as described by Nicholson et al, cited above, using antiserum [IgG Corporation] and ^125 I-labelled ACTH [ICN Corporation].

ACTH secretion = assay: Actions of insulin on ACTH secretion; type: in vivo, Sprague-Dawley rats; conditions: 30 minutes, fasted male rats
Method: To determine whether a drug can modify stress responses, the stress response itself must be characterized. To accomplish this goal, adult male Sprague-Dawley rats [Charles River, Kingston, N.Y.] were treated with increasing doses of insulin [Humulin, Eli Lilly Co.] ranging from 0.05 to 5 IU/kg or saline intraperitoneally after an overnight fast. Thirty minutes after administering insulin, the animals were sacrificed by decapitation and trunk blood was collected into polypropylene tubes containing 400 μl of 10% EDTA at 4° C. The plasma was separated by centrifugation and stored at -80° C. until being used for ACTH determinations. Plasma concentrations of ACTH were determined by radioimmunoassay using antiserum [IgG Corporation, Nashville, Tenn.] and ^125 I-labelled ACTH [ICN Corporation, Costa Mesa, Calif.] as described by Nicholson et al, Clin. Chem., 30:259-265 (1984).

insulin: insulin [Humulin, Eli Lilly Co.], used as provocative challenge to raise plasma ACTH in rats
plasma ACTH concentrations [1]: approximately 200 pg/ml | plasma ACTH levels (ACTH secretion; insulin 0.05 IU/kg intraperitoneally): not elevated | plasma ACTH concentrations (ACTH secretion; insulin 0.1 IU/kg intraperitoneally): significantly greater than in vehicle treated controls | ACTH responses (ACTH secretion; insulin doses higher than 0.1 IU/kg up to 5 IU/kg intraperitoneally): commensuratively greater ACTH responses
